Consider 7 compounds from PubChem BioAssay (NCI).

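In this assay, cells in 96-well plates receive the compound at five concentrations for 48 hours. Endpoints are linearly interpolated between the surrounding concentrations. GI50 marks 50% less growth. TGI is the concentration that stops growth completely.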

Among the test systems are ACHN renal; CAKI-1 renal; DU-145 prostate; HCC-2998 colon; KM12 colon; LOX IMVI melanoma; M14 melanoma; MOLT-4 leukemia; NCI-H522 lung; TK-10 renal.
Common to all, as to assay: growth of human tumour cells (NCI), 48 h

Take `N#Cc1cccc(/C=C(/C(=O)c2ccccc2)c2ccccc2)c1`: the GI50 was 2.47 µM in the experiment on ACHN renal; 3.92 µM with CAKI-1 renal; 3.36 µM in the experiment on DU-145 prostate; 3.15 µM with HCC-2998 colon; 3.31 µM in the experiment with KM12 colon; 2.89 µM in the experiment on LOX IMVI melanoma. Further, the GI50 was 4.05 µM in the experiment on M14 melanoma, 3.19 µM in the experiment with MOLT-4 leukemia, 2.35 µM with NCI-H522 lung and 5.75 µM with TK-10 renal. Further, the TGI with ACHN renal came out at 5.76 µM; in the experiment on CAKI-1 renal, 16.1 µM; in the experiment with DU-145 prostate, 10.2 µM; in the experiment with HCC-2998 colon it was 9.35 µM; in the experiment with KM12 colon, 11.6 µM; in the experiment on LOX IMVI melanoma, 10.2 µM. Moreover, the TGI in the experiment with M14 melanoma is 20.8 µM; in the experiment with MOLT-4 leukemia it was 23.4 µM; with NCI-H522 lung, 6.95 µM; in the experiment with TK-10 renal, 19.9 µM.
Consider `Nc1c(C(=O)c2cccc(CCC3(O)CCCC3)c2)cnn1-c1ccc(F)cc1`, for which the GI50 is above 21 µM in the experiment with ACHN renal; above 25 µM in the experiment with CAKI-1 renal; above 21.1 µM with DU-145 prostate; above 25 µM with HCC-2998 colon; 17.1 µM in the experiment on KM12 colon; above 25 µM in the experiment with LOX IMVI melanoma. The GI50 in the experiment on M14 melanoma is 14.9 µM; in the experiment on MOLT-4 leukemia it was 10.2 µM; in the experiment with NCI-H522 lung, above 19.4 µM; in the experiment on TK-10 renal, 18.8 µM. Also, the TGI in the experiment on ACHN renal, with CAKI-1 renal, in the experiment with DU-145 prostate, with HCC-2998 colon, in the experiment on KM12 colon and in the experiment on LOX IMVI melanoma was above 25 µM in each case. The TGI with M14 melanoma, in the experiment on MOLT-4 leukemia, in the experiment on NCI-H522 lung and in the experiment on TK-10 renal was above 25 µM in each case.
Turning to `CN(C)C(=O)c1cc2cnc(Nc3ccc(-c4csc5c(=O)cc(N6CCNCC6)oc45)cc3)nc2n1C1CCCC1`, the GI50 with ACHN renal was 1.78 µM; in the experiment with CAKI-1 renal, 0.819 µM; in the experiment on DU-145 prostate, 1.01 µM; in the experiment on HCC-2998 colon, 0.551 µM; with KM12 colon, 0.345 µM; in the experiment on LOX IMVI melanoma, 0.85 µM. For the same compound, the GI50 is 0.99 µM in the experiment on M14 melanoma, 0.368 µM with MOLT-4 leukemia, 0.473 µM in the experiment with NCI-H522 lung and 1.34 µM with TK-10 renal. Moreover, the TGI with ACHN renal came out at 5.51 µM; in the experiment on CAKI-1 renal, 12.9 µM; in the experiment with DU-145 prostate, 2.5 µM; in the experiment on HCC-2998 colon, 2.03 µM; with KM12 colon it was 1.58 µM; with LOX IMVI melanoma, 2.22 µM. Moreover, the TGI turned out to be 2.59 µM in the experiment with M14 melanoma, 2.11 µM in the experiment with MOLT-4 leukemia, 2.55 µM with NCI-H522 lung and 14.6 µM with TK-10 renal.
As to `COc1ccc2c(c1)sc1nc(-c3ccccc3)c(-c3ccc(O)c(OC)c3)n12`, the GI50 in the experiment with ACHN renal is 38.9 µM; with CAKI-1 renal, 8.54 µM; in the experiment with DU-145 prostate, 35.4 µM; in the experiment on HCC-2998 colon, above 100 µM; in the experiment on KM12 colon, 4.81 µM; with LOX IMVI melanoma, 7.67 µM. Besides, the GI50 with M14 melanoma was 4.34 µM; in the experiment on MOLT-4 leukemia, 12.8 µM; in the experiment with NCI-H522 lung, 15 µM; in the experiment on TK-10 renal, above 100 µM. The TGI in the experiment with ACHN renal, in the experiment on CAKI-1 renal, with DU-145 prostate, in the experiment on HCC-2998 colon, in the experiment with KM12 colon and with LOX IMVI melanoma was above 100 µM each time. Further, the TGI in the experiment on M14 melanoma, in the experiment with MOLT-4 leukemia, in the experiment with NCI-H522 lung and with TK-10 renal was above 100 µM throughout.
Take `COc1ccc(-c2cc(-c3cn[nH]c3-c3ccccn3)ccn2)cc1`: the GI50 with ACHN renal, in the experiment on CAKI-1 renal, with DU-145 prostate, with HCC-2998 colon, in the experiment on KM12 colon and in the experiment on LOX IMVI melanoma was above 25 µM throughout. Further, the GI50 in the experiment on M14 melanoma, in the experiment with MOLT-4 leukemia, in the experiment on NCI-H522 lung and in the experiment with TK-10 renal was above 25 µM each time. Further, the TGI with ACHN renal, with CAKI-1 renal, in the experiment with DU-145 prostate, in the experiment on HCC-2998 colon, in the experiment on KM12 colon and with LOX IMVI melanoma was above 25 µM in each case. Besides, the TGI in the experiment on M14 melanoma, in the experiment with MOLT-4 leukemia, in the experiment with NCI-H522 lung and in the experiment on TK-10 renal was above 25 µM throughout.
`Nc1nc(N)c2c(ccc3nccc32)[nH]1`: the GI50 in the experiment with ACHN renal is 4.24 µM; in the experiment with CAKI-1 renal it was 2.82 µM; with DU-145 prostate, 8.61 µM; with HCC-2998 colon, 9.79 µM; in the experiment on KM12 colon it was 5.05 µM; in the experiment with LOX IMVI melanoma, 0.839 µM. Also, the GI50 in the experiment on M14 melanoma is 1.92 µM; with MOLT-4 leukemia, 3.12 µM; with NCI-H522 lung it was 4.88 µM; in the experiment on TK-10 renal it was 17.4 µM. Also, the TGI with ACHN renal was 36 µM; in the experiment on CAKI-1 renal, 12.8 µM; with DU-145 prostate, 57.4 µM; in the experiment with HCC-2998 colon, above 91 µM; in the experiment with KM12 colon it was 27.1 µM; in the experiment with LOX IMVI melanoma it was 16.6 µM. The TGI is above 79.8 µM with M14 melanoma, above 92.1 µM with MOLT-4 leukemia, 24.3 µM in the experiment with NCI-H522 lung and above 86.8 µM in the experiment on TK-10 renal.
Turning to `Nc1c(C(=O)c2cccc(C#CCN3CCOCC3)c2)cnn1-c1ccc(F)cc1`, the GI50 is above 25 µM with ACHN renal; above 16 µM with CAKI-1 renal; above 25 µM with DU-145 prostate; above 25 µM in the experiment on HCC-2998 colon; 8.29 µM in the experiment on KM12 colon; above 25 µM with LOX IMVI melanoma. For the same compound, the GI50 in the experiment with M14 melanoma is above 25 µM; in the experiment on MOLT-4 leukemia, above 25 µM; in the experiment with NCI-H522 lung, above 10.9 µM; with TK-10 renal, above 23.4 µM. Besides, the TGI in the experiment on ACHN renal, in the experiment with CAKI-1 renal, in the experiment with DU-145 prostate, with HCC-2998 colon, in the experiment on KM12 colon and in the experiment with LOX IMVI melanoma was above 25 µM throughout. The TGI in the experiment on M14 melanoma was above 25 µM; with MOLT-4 leukemia, above 25 µM; in the experiment on NCI-H522 lung it was above 23.6 µM; with TK-10 renal, above 25 µM.
